# Measured values: patent US20160271157A1, “BETA-CATENIN” (UCL BUSINESS PLC, priority 2013, published 2016)
# Tested on: Wnt induced calcium release
# Assay: Wnt induced [Ca2+]i release after preincubation with thapsigargin or membrane potential regulating compounds
# Assay type: cell-based
# Details: PC3 cells, thapsigargin 5 μM for 15 min; Wnt5A 100 ng/ml, Wnt9B 200 ng/ml, Wnt10B 200 ng/ml
# Method: The imaging protocol was developed in the inventor's laboratory and has been described in detail, elsewhere (Wang at al., (2010) PLoS ONE 5, e10456). Briefly, 100000-200000 PC3, MCF7, 253J or Cos 7 cells were plated on 35 mm FluoroDish (WPI) and grown for 48 h; calcium indicators Fluo-4 (Invitrogen) and FuraRed (Invitrogen) at 1 ng/ml were added to FluoroDish containing only 1 ml of culture medium and incubated for 15-20 min at 37° C. The culture medium was removed and washed (×2) and replaced with 1 ml PBS. Live cell calcium Imaging was performed on an Olympus FluoView FV 1000 confocal microscope (Olympus KeyMed) equipped with a 20× dry objective (numerical aperture=0.75). Calcium indicators were excited with an argon laser line (488 nm) and emissions recorded in the green channel (500-560 nm) for Fluo-4 and red channel (600-700 nm) for FuraRed after addition of vehicle control (PBS) or Wnt X (30-600 ng/ml). Images were acquired every 1.1 or 2.2 seconds for up to 600-800s; image and data acquisition was performed using FluoView 1000 software (Olympus, UK). Fluorescent intensity was measured and data exported as a tab delimited file for further analysis using a spreadsheet. All imaging experiments were performed in duplicate; intracellular calcium at 100 ng/ml was measured in at least 3-12 different passages (passage numbers 25 to 37) of cell line for each Wnt ligand. Wnt 11 was tested in at least 5 different passages at 3 different concentrations. […]
# To measure the effect of changes in membrane potential on [Ca^2+]i release using the protocol described above, in some experiments, external solution (PBS) was substituted with varying concentrations of KCl. In other experiments chemical inhibitors of K^+ channels such as TEA, CsCl or tolbutamide (Sigma-Aldrich) were added to the cells grown on FluoroDish, at 37° C., at least 5 min prior to addition of Wnt ligands.
# After image acquisition, regions of interest (ROI) were drawn over individual PC3 cells (up to 25) in a single frame and calcium intensity measurements were made using FluoView 1000 software (Olympus, UK). The measurements were exported as a tab delimited file into a spreadsheet for further analysis and Fluo4/Fura Red ratios were calculated. The waveform, a product of the ratio of Fluo4 and FuraRed over the period of measurement was used to measure the kinetics of the activation of [Ca^2+]i release in PC3 cells, in response to different Wnt ligands. The time constants (rise, dwell and fall times) were calculated by first fitting the Fluo4/FuraRed ratio to a single Gaussian function (Origin Lab Corp., MA); a lower (10%) and upper (90%) amplitude thresholding method was then used to calculate the time constants (s). Statistical significance was calculated using Mann Whitney U test.
compound,measurement,value
"C/C=C(/C)C(=O)O[C@H]1C(C)=C2[C@H]([C@@H]1OC(=O)CCCCCCC)[C@@](C)(OC(C)=O)C[C@H](OC(=O)CCC)[C@@]1(O)[C@H]2OC(=O)[C@@]1(C)O [thapsigargin, reference compound]","increase in [Ca2+]i in response to Wnt ligands (5A, 9B and 10B) after thapsigargin",abolished
